Experimental data from patent US9315458B2, “Nitrogen-containing heterocyclic compound” (Takeda Pharmaceutical Company Limited, priority 2014, dated 2016).

Target: T1, human M1 receptor (hCHRM1) (Homo sapiens, UniProt P11229)
T1 construct: expressed in transfected cells
T1 sequence (P11229 1-460): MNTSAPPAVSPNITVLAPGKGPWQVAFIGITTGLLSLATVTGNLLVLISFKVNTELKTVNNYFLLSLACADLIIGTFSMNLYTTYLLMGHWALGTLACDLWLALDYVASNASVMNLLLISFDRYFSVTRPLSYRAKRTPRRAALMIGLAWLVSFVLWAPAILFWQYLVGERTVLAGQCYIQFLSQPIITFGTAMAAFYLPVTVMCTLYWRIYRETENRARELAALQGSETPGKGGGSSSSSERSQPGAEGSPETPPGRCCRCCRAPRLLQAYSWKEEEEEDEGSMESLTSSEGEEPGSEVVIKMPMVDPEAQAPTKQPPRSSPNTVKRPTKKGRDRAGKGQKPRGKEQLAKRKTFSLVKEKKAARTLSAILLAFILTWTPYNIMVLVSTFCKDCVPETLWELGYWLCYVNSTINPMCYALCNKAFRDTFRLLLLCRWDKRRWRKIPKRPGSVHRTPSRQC
Test: Measurement of M1 receptor positive allosteric modulator (M1PAM) activity, calcium fluorescence (FLIPRtetra) with acetylcholine at EC20
Format: cell-based
Conditions: for activity (%) at 10 μM: 10 μM test compound, 100% = acetylcholine 1 μM, 0% = DMSO, acetylcholine at EC20; for EC50: inflection point of concentration-dependent curve, CHO-K1 cells expressing hCHRM1, acetylcholine at EC20 (final 0.6-0.8 nM), read-out: IP value
Method: The activity of a test compound in the presence of acetylcholine at EC20 concentration (final concentration 0.6-0.8 nM), which affords an action corresponding to about 20% of the maximum activity, was measured as PAM activity. The method is as follows. CHO-K1 cells stably expressing a human M1 receptor (hCHRM1) were plated on a 384-well black clear bottom plate (BD Falcon) at 5,000 cells/well, and cultured in an incubator at 37° C., 5% CO2 for 1 day. The medium in the cell plate was removed, and assay buffer A (Recording medium (DOJINDO LABORATORIES), 0.1% BSA (Wako Pure Chemical Industries, Ltd.), 2.5 μg/mL Fluo-4 AM (DOJINDO LABORATORIES), 0.08% Pluronic F127 (DOJINDO LABORATORIES), 1.25 mM probenecid (DOJINDO LABORATORIES)) containing a calcium indicator was added at 30 μL/well. The cells were left standing in the incubator at 37° C., 5% CO2 for 30 min, and further left standing at room temperature for 30 min. A test compound prepared by diluting with assay buffer B (HBSS (Invitrogen), 20 mM HEPES (Invitrogen), 0.1% BSA) containing 2.4-3.2 nM acetylcholine was added at 10 μL/well, and the fluorescence was measured by FLIPRtetra (Molecular Devices) for 1 min every 1 second. With the definition that the amount of change in the fluorescence on addition of acetylcholine (final concentration 1 μM) is 100% and that on addition of DMSO instead of a test compound is 0%, the activity (%) of the test compound was calculated, and the inflection point in the concentration-dependent curve of the test compound was calculated as IP values.

Compound | activity (%) at 10 μM | EC50
Cc1cc2c(cc1Cc1ccc(-n3cccn3)cc1)C(=O)N(C1CCOCC1)C2 [Example 8, 5-methyl-6-(4-(1H-pyrazol-1-yl)benzyl)-2-(tetrahydro-2H-pyran-4-yl)isoindolin-1-one] | 90% | 290 nM
COc1ccc(Cc2cc3c(c(C)c2C)CN([C@H]2COCC[C@@H]2O)C3=O)c(F)c1 [Example 163, 6-(2-fluoro-4-methoxybenzyl)-2-[(3S,4S)-4-hydroxytetrahydro-2H-pyran-3-yl]-4,5-dimethyl-2,3-dihydro-1H-isoindol-1-one] | 108% | 51 nM
Cc1c(Cc2ccc(-n3cccn3)cc2)cc2c(c1C)CN([C@H]1CCC[C@@H]1O)C2=O (racemic) [Example 34, rac-2-(trans-2-hydroxycyclopentyl)-4,5-dimethyl-6-(4-(1H-pyrazol-1-yl)benzyl)isoindolin-1-one] | 108% | 18 nM
Cc1cc2c(cc1Cc1ccc(-c3cn(C)nn3)cc1F)C(=O)N(CC1CCCO1)C2 (centres unmarked) [Example 54, 6-(2-fluoro-4-(1-methyl-1H-1,2,3-triazol-4-yl)benzyl)-5-methyl-2-(tetrahydrofuran-2-ylmethyl)isoindolin-1-one] | 92% | 37 nM
Cc1cc2c(cc1Cc1ccc(-c3cnn(C)c3)cc1)C(=O)N([C@H]1CCC[C@@H]1O)C2 (racemic) [Example 67, rac-2-(trans-2-hydroxycyclopentyl)-5-methyl-6-(4-(1-methyl-1H-pyrazol-4-yl)benzyl)isoindolin-1-one] | 93% | 26 nM
Cc1c(Cc2ccc(-c3cn(C)nn3)cc2)cc2c(c1C)CN(C[C@H]1CCCO1)C2=O [Example 110, 4,5-dimethyl-6-(4-(1-methyl-1H-1,2,3-triazol-4-yl)benzyl)-2-((2R)-tetrahydrofuran-2-ylmethyl)isoindolin-1-one] | 77% | 24 nM
Cc1cc2c(cc1Cc1ccc(-n3cccn3)cc1)C(=O)N([C@H]1CCC[C@@H]1O)C2 (racemic) [Example 33, rac-2-(trans-2-hydroxycyclopentyl)-5-methyl-6-(4-(1H-pyrazol-1-yl)benzyl)isoindolin-1-one] | 95% | 37 nM
CCc1cc2c(cc1Cc1ccc(-n3cccn3)cc1F)C(=O)N([C@H]1COCC[C@@H]1O)C2 [Example 144, 5-ethyl-6-[2-fluoro-4-(1H-pyrazol-1-yl)benzyl]-2-[(3S,4S)-4-hydroxytetrahydro-2H-pyran-3-yl]-2,3-dihydro-1H-isoindol-1-one] | 97% | 23 nM
Cc1c(Cc2ccc(-c3ccn(C)n3)cc2)cc2c(c1F)CN([C@H]1COCC[C@@H]1O)C2=O [Example 140, 4-fluoro-2-[(3S,4S)-4-hydroxytetrahydro-2H-pyran-3-yl]-5-methyl-6-[4-(1-methyl-1H-pyrazol-3-yl)benzyl]-2,3-dihydro-1H-isoindol-1-one] | 93% | 2 nM
Cc1cc(-c2ccc(Cc3cc4c(cc3C)CN([C@H]3CCC[C@@H]3O)C4=O)cc2)cnn1 (racemic) [Example 91, rac-2-(trans-2-hydroxycyclopentyl)-5-methyl-6-(4-(6-methylpyridazin-4-yl)benzyl)isoindolin-1-one] | 95% | 38 nM
COc1ccc(Cc2cc3c(c(Cl)c2C)CN([C@H]2CCC[C@@H]2O)C3=O)cc1 [Example 152, 4-chloro-2-((1S,2S)-2-hydroxycyclopentyl)-6-(4-methoxybenzyl)-5-methylisoindolin-1-one] | 91% | 47 nM
Cc1c(Cc2ccc(-n3cccn3)nc2)cc2c(c1C)CN(C[C@@H]1CCCO1)C2=O [Example 136, 4,5-dimethyl-6-((6-(1H-pyrazol-1-yl)pyridin-3-yl)methyl)-2-((2S)-tetrahydrofuran-2-ylmethyl)isoindolin-1-one] | 100% | 75 nM
COc1c(Cc2ccc(-n3cccn3)cc2)cc2c(c1Cl)CN([C@H]1CCCC[C@@H]1O)C2=O (racemic) [Example 12, rac-4-chloro-2-(trans-2-hydroxycyclohexyl)-5-methoxy-6-(4-(1H-pyrazol-1-yl)benzyl)isoindolin-1-one] | 91% | 7.7 nM
Cc1cc2c(cc1Cc1ccc(-c3cn(C)nn3)cc1)C(=O)N(CC1CCCO1)C2 (centres unmarked) [Example 49, 5-methyl-6-(4-(1-methyl-1H-1,2,3-triazol-4-yl)benzyl)-2-(tetrahydrofuran-2-ylmethyl)isoindolin-1-one] | 97% | 31 nM
Cc1cc2c(cc1Cc1ccc(-c3cn(C)nn3)cc1)C(=O)N([C@H]1CCCC[C@@H]1O)C2 (racemic) [Example 47, rac-2-(trans-2-hydroxycyclohexyl)-5-methyl-6-(4-(1-methyl-1H-1,2,3-triazol-4-yl)benzyl)isoindolin-1-one] | 99% | 3 nM
Cc1cc(-c2ccc(Cc3cc4c(cc3C)CN([C@H]3CCC[C@@H]3O)C4=O)cn2)ccn1 (racemic) [Example 41, rac-2-(trans-2-hydroxycyclopentyl)-5-methyl-6-((2′-methyl-2,4′-bipyridin-5-yl)methyl)isoindolin-1-one] | 97% | 30 nM
Cc1c(Cc2ccc(C#N)cc2F)cc2c(c1C)CN([C@H]1COCC[C@@H]1O)C2=O (racemic) [Example 112, rac-3-fluoro-4-((2-(trans-4-hydroxytetrahydro-2H-pyran-3-yl)-6,7-dimethyl-3-oxo-2,3-dihydro-1H-isoindol-5-yl)methyl)benzonitrile] | 93% | 30 nM
Cc1c(Cc2ccc(Cl)cc2)cc2c(c1C)CN([C@H]1COCC[C@@H]1O)C2=O [Example 17, 1,5-anhydro-2-(6-(4-chlorobenzyl)-4,5-dimethyl-1-oxo-1,3-dihydro-2H-isoindol-2-yl)-2,4-dideoxy-L-threo-pentitol] | 90% | 18 nM
Cc1cc2c(cc1Cc1ccc(-n3cccn3)cc1)C(=O)N(C(C)C(C)(C)O)C2 (centres unmarked) [Example 133, 2-(3-hydroxy-3-methylbutan-2-yl)-5-methyl-6-(4-(1H-pyrazol-1-yl)benzyl)isoindolin-1-one] | 87% | 35 nM
Cc1c(Cc2ccc(OC(F)F)cc2)cc2c(c1C)CN([C@H]1COCC[C@@H]1O)C2=O [Example 22, 1,5-anhydro-2,4-dideoxy-2-(6-(4-(difluoromethoxy)benzyl)-4,5-dimethyl-1-oxo-1,3-dihydro-2H-isoindol-2-yl)-L-threo-pentitol] | 110% | 32 nM
COc1ccc(Cc2cc3c(cc2C)CN([C@H]2CCCC[C@@H]2O)C3=O)cc1 [Example 167, 2-((1S,2S)-2-hydroxycyclohexyl)-6-(4-methoxybenzyl)-5-methylisoindolin-1-one] | 95% | 30 nM
Cc1c(Cc2ccc(-c3ccn(C)n3)cc2)cc2c(c1C)CN([C@H]1CCCC[C@@H]1O)C2=O (racemic) [Example 82, rac-2-(trans-2-hydroxycyclohexyl)-4,5-dimethyl-6-(4-(1-methyl-1H-pyrazol-3-yl)benzyl)isoindolin-1-one] | 91% | 5.7 nM
